Data taken from ChEMBL document CHEMBL5357005, “Discovery and Heterologous Production of Tetrapetalones Provide Insights into the Formation of the Tetracyclic System” (J Nat Prod, 2024).
The source made the active and inactive calls.

Columns and labels:
Pseudomonas aeruginosa = test: Antimicrobial activity against Pseudomonas aeruginosa PA01 assessed as reduction in microbial growth measured for 24 hrs by paper disc diffusion method; assay type: functional, organism-based
HCT-116 = test: Cytotoxicity against human HCT-116 cells assessed as reduction in cell viability at 50 uM by sulfonyl rhodamine B colorimetry analysis; assay type: functional, cell-based
SW480 = test: Cytotoxicity against human SW480 cells assessed as reduction in cell viability at 50 uM by sulfonyl rhodamine B colorimetry analysis; assay type: functional, cell-based
Candida albicans = test: Antifungal activity against Candida albicans 5314 assessed as reduction in microbial growth measured for 48 hrs by paper disc diffusion method; assay type: functional, organism-based
Staphylococcus aureus = test: Antimicrobial activity against Staphylococcus aureus ATCC 25923 assessed as reduction in microbial growth measured for 24 hrs by paper disc diffusion method; assay type: functional, organism-based
Salmonella typhimurium = test: Antimicrobial activity against Salmonella enterica subsp. enterica serovar Typhimurium assessed as reduction in microbial growth measured for 24 hrs by paper disc diffusion method; assay type: functional, organism-based

Measured: Activity

CC[C@@]12C=C(C)[C@@H]3[C@@H](C)[C@H](O)C4=CC(=O)C=C(N1C(=O)C(C)=C2O)[C@@]43O
inactive: all assays above

CC1=C[C@@]2(CO)C(O)=C(C)C(=O)N2C2=CC(=O)C=C3[C@@H](O[C@@H]4CC[C@H](O)[C@H](C)O4)[C@H](C)[C@@H]1[C@]32O
inactive: all assays above

CC1=C[C@@]2(C)C(O)=C(C)C(=O)N2C2=CC(=O)C=C3[C@@H](O)[C@H](C)[C@@H]1[C@]32O
inactive: all assays above

CC1=C[C@@]2(C)C(O)=C(C)C(=O)N2C2=CC(=O)C=C3[C@@H](O[C@@H]4CC[C@H](O)[C@H](C)O4)[C@H](C)[C@@H]1[C@]32O
inactive: all assays above

CC1=C[C@@]2(C)C(O)=C(C)C(=O)N2C2=CC(=O)C=C3[C@@H](O[C@H]4O[C@H](C)[C@@H](O)[C@H](O)[C@@H]4O)[C@H](C)[C@@H]1[C@]32O
inactive: all assays above

CC[C@@]12C=C(C)[C@@H]3[C@@H](C)[C@H](O[C@H]4O[C@H](C)[C@@H](O)[C@H](O)[C@@H]4O)C4=CC(=O)C=C(N1C(=O)C(C)=C2O)[C@@]43O
inactive: all assays above

CC[C@@]12C=C(C)[C@@H]3[C@@H](C)[C@H](O[C@@H]4CC[C@H](O)[C@H](C)O4)C4=CC(=O)C=C(N1C(=O)C(C)=C2O)[C@@]43O
inactive: all assays above

CC1=C[C@H]2C(O)=C(C)C(=O)N2C2=CC(=O)C=C3[C@@H](O[C@@H]4CC[C@H](O)[C@H](C)O4)[C@H](C)[C@@H]1[C@]32O
inactive: all assays above
